From paper PMC10994559 (PLOS Neglected Tropical Diseases, 2024)
Where two headings read alike, the source gives them in different places.

Tests used:
L. major promastigotes = test: L. major promastigote viability, resazurin reduction; assay type: cell-based, Leishmania major; details: for viability at 25 µM: Leishmania major, read-out: viability, L.major promastigote (25 µM)
From the text: (§1) The infectivity of the parasites was boosted by passaging in Balb/c mice and culturing the infected lymph nodes after six weeks. L. infantum (MHOM / BR / 76 / M4192) parasite was passaged in the same media formulation with 0.5% urine.

[1] = test system: L. infantum promastigotes; test: L. infantum promastigote viability, resazurin reduction; assay type: cell-based, Leishmania infantum; details: sheet LTC_compound_viability, value ± spread; for viability at 2.5 µM / viability at 25 µM: Leishmania infantum; for viability at 2.5 µM: read-out: viability, L. infantum promastigote (2.5 µM); for viability at 25 µM: read-out: viability, L. infantum promastigote (25 µM)
From the text: as §1

[2] = test system: L. major axenic amastigotes; test: L. major axenic amastigote viability, resazurin reduction; details: for viability at 25 µM: Leishmania major, read-out: viability, L.major amastigote (25 µM)
Description: L. major LV561(MHOM/IL/67/LRC-L137 JERICHO II) amastigotes were passaged in Grace insect medium supplemented with NaHCO3, 0.1% amikin and 20% of FCS (pH: 5.4) and kept at 33°C.
Exponential growth phase promastigotes of L. major or L. infantum and axenic amastigotes (L. major) were harvested and seeded in 384 well plates (white, non-transparent, tissue culture treated, flat bottom; Corning) (0.5x10^5 cells per well). Compounds were pre-dispensed into the plate with an Echo 650 acoustic dispenser (Beckman Coulter). After 72h incubation, resazurin was added (1:10 v/v) from a […] stock in PBS, followed by incubation for six hours. Then, fluorescence intensity was measured using a microplate reader (Synergy H1, BioTek) with excitation filter: 550 nm and emission filter: 590 nm. Efficient compounds were selected for the next round of viability assay with 2.5 μM concentrations of the compounds. […] All experiments were performed with AmB as a positive control drug in parallel.
Axenic amastigotes, the relevant form that persists in the infected host, were generated in the lab through established procedures, employing harsh pH (pH 5) and high temperature (33°C) conditions.

T. brucei brucei BSF = test: T. brucei BSF viability, resazurin reduction; assay type: cell-based, Trypanosoma brucei brucei; details: for viability at 2.5 µM / viability at 25 µM / EC50: Trypanosoma brucei; for viability at 2.5 µM: read-out: viability, T.brucei (2.5 µM); for viability at 25 µM: read-out: viability, T.brucei (25 µM); for EC50: read-out: EC50 T. brucei BSF, dose response, triplicate, ± SD (Table 2) / ± SE (S3 Table)
Description: T. brucei brucei (strain 427 Lister) blood stream form (BSF) parasites were passaged in complete HMI-9 media supplemented with 10% FCS, Pen-Strep (0.1%) and 2-mercaptoethanol (0.014 v/v) and kept in a 37° C CO2 incubator in filter-cap flasks.
(§2) Viability of T. brucei brucei BSF and T. cruzi trypomastigotes was assayed with fluorescence resazurin reduction assay, essentially as described above. […] Next, selected compounds were tested at 2.5 μM concentration, and promising compounds subjected to 18 concentrations dose response analyses. AN3057 and AmB were used as a control drug in T. brucei and T. cruzi, respectively.

T. cruzi trypomastigotes = test: T. cruzi viability, resazurin reduction; assay type: cell-based, Trypanosoma cruzi; details: for viability at 2.5 µM / viability at 25 µM: Trypanosoma cruzi; for viability at 2.5 µM: read-out: viability, T.cruzi (2.5 µM); for viability at 25 µM: read-out: viability, T.cruzi (25 µM)
Description: T. cruzi (Y strain) trypomastigotes were passaged in liver infusion broth media supplemented with tryptose, NaCl, Na2HPO4, KCl, glucose, hemin, Pen-Strep (1%), 10% FCS (pH: 7.2) and kept at 28°C.
as §2

E. histolytica = E. histolytica viability, ATP luminescence (Cell titer glo); assay type: cell-based, Entamoeba histolytica; details: for EC50 / viability at 2.5 µM / viability at 25 µM: Entamoeba histolytica; for EC50: 48 h, 9 to 16-point dose response; for viability at 2.5 µM: read-out: viability, E.histolytica (2.5 µM); for viability at 25 µM: read-out: viability, E.histolytica (25 µM)
Description: Entamoeba histolytica (strain B2-5) was passaged in TY-1 medium (Trypticase peptone BBL, Yeast extract BBL, glucose, NaCl, K2HPO4, KH2PO4, cysteine, ascorbic acid, ammonium iron citrate, adult bovine serum, Diamond tween 80, penicillin G, amikacin (pH:6.8)) and kept in 37°C incubator in completely filled tubes with closed lid.
Viability of E. histolytica was assayed via a luminescence assay based on ATP quantification in the live cells. Briefly, 2.5x10^4 cell/ml were exposed to 25 μM of compounds in 96 well plates (non-transparent, tissue culture treated, flat bottom; SPL Life Sciences) in triplicate for 48h. Plates were incubated in sealed anaerobic bags (Oxoid AGS) together with an Anaerogen compact bag (Thermo Scientific) and anaerobic indicator (Thermo Scientific) at 37°C. Then, Cell titer glo reagent (Promega) was added to the reaction (1:5) according to manufacturers’ instruction. After 15 min of orbital shaking, followed by 10 min incubation at RT, ATP-bioluminescence was quantified at RT using a Synergy H1 plate reader (Synergy H1, BioTek). Metronidazole was included as control drug in all the assays for E. histolytica. Test compounds indicating significant growth reduction in the primary screen were subjected to potency determination. These secondary screens were essentially carried out as detailed above, but with a 9 to 16-point concentration range of the test compounds spanning 0.01–100 μM.

[3] = test system: Murine macrophage cells (J774); test: Cytotoxicity assay J774, resazurin reduction; assay type: cell-based
Description: (§3) Mammalian cell lines (J774 and HepG2) were passaged in RPMI media supplemented with MEM, Pen-Strep (1%) and 10% FCS. Cultures were kept at 37°C incubator with 5% CO2 in filter-cap flasks.
(§4) Murine macrophage cells (J774) and human hepatocyte carcinoma HepG2 cells were seeded at 0.5x10^5 cell/well in 384 well plates in triplicate, exposed to serial dilution of compounds, dispensed using an Echo 650 acoustic dispenser (Labcyte). After incubation for 72 h at 37°C, 5% CO2, cell viability was determined using fluorescence resazurin reduction assay (λEx: 550 nm; λEm: 590 nm).

[4] = test system: intracellular L. infantum amastigotes; test: Parasite rescue assay (intramacrophage, J774 infected with L. infantum); assay type: cell-based, Leishmania infantum; details: for viability at 25 µM: J774, 25 µM, intracellular amastigote, read-out: viability, intracellular L. major amastigote (25 µM)
[5] = Cytotoxicity assay J774, resazurin reduction; assay type: cell-based, murine; details: mouse, J774 macrophage cells; for viability at 72 h, 2.5 µM: read-out: viability, J774 (2.5 µM); for viability at 72 h, 25 µM: read-out: viability, J774 (25 µM)
Description: as §3, §4

With LTC-4 the “viability, L.major promastigote (25 µM)” value (L. major promastigotes; 25 µM) was 1.56±2.86, the “viability, L.major promastigote (25 µM)” value (L. major promastigotes; head prints 25 µM, second of two columns with this head) was 60.14±7.43 and the “viability, L. infantum promastigote (2.5 µM)” value ([1]; 2.5 µM) was 85.51±1.79. The “viability, L. infantum promastigote (25 µM)” value ([1]; 25 µM) was 24.04±0.45, the “viability, L.major amastigote (25 µM)” value ([2]; 25 µM) was 76.6±1.33 and the “viability, T.brucei (2.5 µM)” value (T. brucei brucei BSF; 2.5 µM) was 100.44±5.5. For the same compound, the “viability, T.brucei (25 µM)” value (T. brucei brucei BSF; 25 µM) was 89.28±12.34, the “viability, T.cruzi (2.5 µM)” value (T. cruzi trypomastigotes; 2.5 µM) was 57.84±2.64 and the “viability, T.cruzi (25 µM)” value (T. cruzi trypomastigotes; 25 µM) was 58.59±2.21. The “viability, E.histolytica (2.5 µM)” value (E. histolytica; 2.5 µM) was 68±7.58, the “viability, E.histolytica (25 µM)” value (E. histolytica; 25 µM) was 71.3±5.74 and the “viability, J774 (2.5 µM)” value ([3]; 2.5 µM) was 100.11±5.45. For the same compound, the “viability, J774 (25 µM)” value ([3]; 25 µM) was 144.21±37.63 and the “viability, intracellular L. major amastigote (25 µM)” value ([4]; 25 µM) was 76.09±31.52.

O=C(Cc1ccc2ccccc2c1)NC(Cc1ccccc1)C(O)CN1CCN(Cc2ccccc2)CC1 (stereo not shown) [LTC-6] gave a viability at 25 µM (L. major promastigotes; 72 h) of 66.2 ± 3.33%, a viability at 25 µM (L. major promastigotes; 25 µM) of 0.62 ± 0.39% and a viability at 2.5 µM ([1]; 2.5 µM) of 100.6 ± 0.6%. The viability at 25 µM ([1]; 25 µM) was 0.37 ± 0.06%, the viability at 25 µM [2] was 73.5 ± 1.98% and the viability at 2.5 µM (T. brucei brucei BSF; 2.5 µM) was 91 ± 5.89%. The viability at 25 µM (T. brucei brucei BSF; 25 µM) was 2.92 ± 1.26%, the EC50 (T. brucei brucei BSF) was 5.6 ± 1.7 µM and the viability at 2.5 µM (T. cruzi trypomastigotes; 2.5 µM) was 56.4 ± 4.53%. It also gave a viability at 25 µM (T. cruzi trypomastigotes; 25 µM) of 18.4 ± 1.57%, an EC50 (E. histolytica) of 4.9 ± 1.8 µM and a viability at 2.5 µM (E. histolytica) of 86.8 ± 20.5%. The viability at 25 µM (E. histolytica) was 2.71 ± 1.39%, the viability at 72 h, 2.5 µM [5] was 106 ± 6.66% and the viability at 72 h, 25 µM [5] was 2.99 ± 2.56%. It also gave a viability at 25 µM [4] of 47.3 ± 9.73%.

O=C(Cc1cccc(C(F)(F)F)c1)NC(Cc1ccccc1)C(O)CN1CCN(Cc2ccccc2)CC1 (stereo not shown) [LTC-8] showed a viability at 25 µM (L. major promastigotes; 72 h) of 67.5 ± 1.55%, a viability at 25 µM (L. major promastigotes; 25 µM) of 0.28 ± 0.16% and a viability at 2.5 µM ([1]; 2.5 µM) of 101 ± 1.24%. It also gave a viability at 25 µM ([1]; 25 µM) of 0.96 ± 0.46%, a viability at 25 µM [2] of 75.1 ± 2.03% and a viability at 2.5 µM (T. brucei brucei BSF; 2.5 µM) of 98.5 ± 6.21%. For the same compound, the viability at 25 µM (T. brucei brucei BSF; 25 µM) was 3.15 ± 1.45%, the EC50 (T. brucei brucei BSF) was 7.3 ± 1.7 µM and the viability at 2.5 µM (T. cruzi trypomastigotes; 2.5 µM) was 59.3 ± 1.4%. The viability at 25 µM (T. cruzi trypomastigotes; 25 µM) was 33.8 ± 0.8%, the EC50 (E. histolytica) was 4.4 ± 1.7 µM and the viability at 2.5 µM (E. histolytica) was 60.3 ± 6.76%. It also gave a viability at 25 µM (E. histolytica) of 0.54 ± 0.81%, a viability at 72 h, 2.5 µM [5] of 102 ± 8.6% and a viability at 72 h, 25 µM [5] of 4.16 ± 2.39%. For the same compound, the viability at 25 µM [4] was 67.2 ± 5.73%.
